“Also recorded” adds a separate entry of the source.
Assays:
[1] = Hematological and biochemical parameters before and one week after treatment; format: in vivo, dog
Description: In this phase I dose escalation clinical trial, both treatment-naïve and relapsed dogs were enrolled. NBD peptide was administered according to a standard 3+3 trial design. […] Peptide was reconstituted to 50 mM in sterile DMSO and diluted in 20 mls of lactated Ringers solution immediately prior to intravenous administration at a constant rate of 20 ml/hr. […] Following the post-treatment biopsy, dogs received induction or rescue chemotherapy as determined by their primary attending veterinary oncologist and a short course of prophylactic antibiotics (amoxicillin). All dogs received a follow-up full clinical examination, CBC, CS and urinalysis one week post NBD peptide.

[2] = system: dogs with spontaneous ABC-like DLBCL; assay: Phase I 3+3 dose escalation: adverse events and toxicity (VCOG-CTCAE); format: in vivo, dog
Excerpt: The clinical trial protocol was fully approved by the University of Pennsylvania's Institutional Animal Care and Use Committee (Privately Owned Animal Protocol number: 803765). Only dogs with full written informed owner consent were eligible for enrollment. […] The histopathological diagnosis of DLBCL and cytological confirmation of large B cell lymphoma were made by board certified veterinary pathologists (M.G., and A.D., see acknowledgements) and by a board certified clinical pathologist (R.P.) respectively. Only dogs with DLBCL and constitutive NF-κB activity within their malignant lymph nodes as determined by the presence of phospho-IKK, phospho-IκBα and phospho-p65 were eligible to receive NBD peptide.
(§1) Tumor burden was calculated by measuring three dimensions (length, width and height) for each malignant lymph node. The mass of each node was calculated as previously described and the sum of measured lymph node mass was considered as total tumor mass. Response to NBD peptide was evaluated according to the Veterinary Cooperative Oncology Group criteria for assessment of response in peripheral nodal lymphoma, adapted for use in dogs from the published RECIST criteria. The Veterinary Cooperative Oncology Group Common Terminology for Adverse Events, version 1.0 was used to grade adverse events.

rats, mice and piglets = conditions: doses ranging from 0.75 mg/kg to 20 mg/kg; cited from earlier work
Excerpt: In this study, as a consequence of dru ...

malignant lymph nodes [3] = assay: TUNEL staining of malignant lymph node biopsies; format: in vivo, dog; conditions: 24 hours post peptide vs pre; tissue available from 9 dogs
Description: (§2) Immunohistochemical analysis was performed on 5 micron sections of formalin fixed paraffin embedded lymph node tissue from dogs with spontaneous DLBCL using a DAKO automatic universal staining system. Sections were heated in a 60°C oven for 1 hour, depararaffinized in PRO PAR clearant and rehydrated in progressively decreasing grades of ethanol. Antigen retrieval was performed by boiling sections in sodium citrate buffer, pH ∼9.0 for 15 minutes. Endogenous peroxidase was blocked with 3% hydrogen peroxide. For Ki67 staining, a 1∶50 dilution of a monoclonal mouse anti-human antibody (Clone MIB-1, DAKO) was used and immunodetection was performed using a biotinylated goat anti-rabbit/anti-mouse immunoglobulin and SA-HRP (LSAB2 kit, DAKO, Carpinteria, CA). For IRF-4 staining, a 1∶200 dilution of a polyclonal mouse anti human antibody (DAKO, M7259) was used and immunodetection was performed using a peroxidase polymer conjugated anti-mouse secondary antibody system (ImmPRESS Anti-mouse Ig peroxidase polymer detection kit). In all cases, antibody binding was detected using 3,3′-diaminobenzidine solution and tissues were counterstained with hematoxylin. Slides were viewed using a Nikon E600 infinity corrected upright microscope. […] Apoptotic cells were detected using the cell death detection kit (Roche, Indianapolis, IA) following the manufacturer's instructions. […]

[4] = system: dogs with spontaneous ABC-like DLBCL; assay: Clinical response and survival after NBD peptide plus chemotherapy; format: in vivo, dog
Description: as §1

[5] = Plasma pharmacokinetics after intravenous infusion (mass spectrometry)
Description: In this phase I dose escalation clinical trial, both treatment-naïve and relapsed dogs were enrolled. NBD peptide was administered according to a standard 3+3 trial design. The dose endpoint was the dose at which canonical NF-κB signaling was inhibited within malignant lymph nodes. Peptide was reconstituted to 50 mM in sterile DMSO and diluted in 20 mls of lactated Ringers solution immediately prior to intravenous administration at a constant rate of 20 ml/hr. Twenty-four hours post NBD peptide administration, excisional or Tru-cut biopsies of a peripheral malignant lymph node were taken for Western blot, qRT-PCR and histopathological analysis.
EDTA anti-coagulated blood samples were taken at 0, 30, 60, 90, 120, 240, 360 mins and 24 hours post infusion. Plasma was separated by centrifugation and stored at −80°C prior to pharmacokinetic analysis. Mass spectrometer analysis of NBD peptide in plasma samples was performed by Frontage Laboratories, Exton, PA and pharmacokinetic (PK) parameters were determined using WinNonlin v5.2 software. The lower limit of quantification (LLOQ) was set to 10 ng/ml however, in some instances the LLOQ was changed to 20 ng/ml because of potential interference in the samples.

Cyclin D1 = assay: qRT-PCR of Cyclin D1 in malignant lymph node biopsies; format: in vivo, dog; conditions: 24 hour post-peptide biopsy normalized to pre-treatment; β-actin control, triplicate
Description: (§3) Lymph node biopsies were immediately placed in RNAlater (Ambion, Austin, TX) and stored at –80°C prior to RNA extraction. Total RNA extraction was performed using the RNeasy Mini Kit (Qiagen, Valencia, CA). Reverse transcription was performed using random hexamers and Superscript II reverse transcriptase (Invitrogen Corp., Carlsbad. CA, USA) according to the manufacturer's instructions. Primer sequences for canine A1, A20, Bcl-XL, c-FLIP, Cyclin D1, Bcl-2, XIAP and β-actin have been previously described, [35]. Primers were synthesized by Invitrogen Corp. Real-time PCR assays were performed using SYBR Green (Fermentas, Glen Burnie, Maryland). Samples were run in triplicate using standard conditions on an ABI 7500 sequence detector (Applied Biosystems, Carlsbad, CA) and data were analyzed using β-actin as an endogenous control. Dissociation curves were performed after each experiment to confirm the specificity of product amplification. Statistical analysis was performed using a two-tailed Student's ‘t’ test where statistical significance = p<0.05.

malignant lymph nodes [6] = assay: Measureable tumor mass before and 24 h after peptide; format: in vivo, dog; conditions: 24 hours after NBD peptide; measurements available for 10 treated dogs
Description: as §1

[7] = system: constitutive canonical NF-κB signaling (phospho-IKKα/β:IKKβ); assay: Immunoblot and densitometry of phospho-IKK in malignant lymph node biopsies, pre and 24 h post peptide; format: in vivo, dog; conditions: malignant lymph node biopsy 24 hours after single 1 h i.v. infusion, 0.5-2 mg/kg, vs pre-treatment; paired samples from ten of eleven dogs
Description: Lymph node biopsy samples were mechanically dissociated in RPMI and red blood cells were removed using ACK lysis buffer (Gibco) according to manufacturer's instructions. Cells were lysed in 50 mM Tris-HCL containing 1% NP-40, 150 mM NaCl, 2.5 mM EDTA, 5% glycerol, a 1∶50 dilution of Protease Inhibitor Cocktail and 1∶50 dilutions of Phosphatase Inhibitor Cocktails 2 and 3 (Sigma-Aldrich, Saint Louis, MO). Samples were centrifuged and protein concentrations were determined by micro BCA assay (Thermo Scientific, Rockford, IL). Proteins from whole cell extracts were separated by SDS-PAGE (10%) followed by transfer to PVDF membrane. Membranes were probed with polyclonal rabbit anti-human antibodies against phospho-IKKα/β (16A6), IKKβ (L570), phospho-IκBα (14D4), mouse anti-human IκBα (L35A5) and β-actin (4967) (Cell Signaling, Danvers, MA). An HRP-conjugated donkey anti-rabbit or anti-mouse IgG was used as the secondary detection antibody (Amersham, Piscataway, NJ). Blots were developed using ECL Plus (Amersham, Piscataway, NJ). Densitometry was performed using ImageJ software and integrated density values for each band were obtained using the Analyze Particles function.

Ki67 = Ki67 immunohistochemistry of malignant lymph node biopsies; format: in vivo, dog; conditions: 24 hours post peptide vs pre; 10 high power fields
Description: as §2

malignant node = conditions: local, intranodal administration; cited from earlier work
Excerpt: (§4) Pet dogs that develop Non-Hodgkins Lymphoma (NHL) are recognized as a clinically relevant, spontaneous large animal model of the human disease, [27]–[31]. […] Furthermore, tissue microarrays from lymphomatous canine tissue confirmed the presence of constitutive NF-κB activity and pharmacological inhibition of IKK leads to in ...

[8] = system: primary malignant canine B cells; conditions: in vitro, cited from earlier work
Excerpt: as §4

[9] = system: NF-κB target genes (A1, c-FLIP, XIAP, Bcl-XL, Bcl-2 and A20); assay: qRT-PCR of pro-survival NF-κB target genes in malignant lymph nodes; format: in vivo, dog
Description: as §3

[10] = one week after NBD peptide plus induction or rescue chemotherapy

NEMO Binding Domain (NBD) peptide [NBD peptide]
dogs with significant but asymptomatic increases in liver values (ALT, ALKP, AST and GGT) one week later ([1]; Group 2, 1 mg/kg, dog also received L'asparaginase 24 hrs after peptide, values returned to baseline two weeks later): One
dogs with elevated ALKP prior to peptide that showed further increases in ALKP post treatment ([1]; all previously treated for relapsed lymphoma, one week after NBD peptide plus chemotherapy): 4/11
dogs with an increase in platelet count [1, 10]: 8/11
dogs with mild decreases in lymphocyte counts [1, 10]: 9/11
dogs with mild decreases in hematocrit ([1]; one week after NBD peptide plus induction or rescue chemotherapy, most values within the normal range): 9/11
acute or chronic toxicities at any dose evaluated ([2]; 0.5-2.0 mg/kg single i.v. dose, clinical, hematological and biochemical parameters): no significant acute or chronic toxicities
safety of intravenous administration ([2]; <2 mg/kg i.v.): safe
dogs that became drowsy and developed moderate tachycardia and hypertension during infusion ([2]; Group 1, 0.5 mg/kg i.v., three dogs, no premedication, mild, transient, resolved when infusion was discontinued): two
additional dogs with transient hypertension ([2]; Group 2, 1 mg/kg i.v., premedicated with ondansetron and diphenhydramine): one
maximum tolerated dose of NBD peptide in dogs ([2]; doses 0.5-2.0 mg/kg i.v.): not reached
tolerability of systemic administration (rats, mice and piglets): well tolerated
dogs with a trend towards an increase in apoptosis (TUNEL) (malignant lymph nodes [3]): Five
dogs that achieved clinical remission (CR) ([4]; NBD peptide plus chemotherapy, eleven dogs, including 5 dogs treated at first relapse): Seven
dogs that survived greater than 16 months ([4]; after peptide administration and chemotherapy): three
plasma concentrations of NBD peptide at the doses studied ([5]; 0.5-2.0 mg/kg i.v.): very low
NBD peptide in plasma after 60 mins ([5]; any dog, sampling up to 24 hours post infusion, LLOQ 10 or 20 ng/ml): not detected; also recorded: undetectable
dogs with a decrease in the expression of Cyclin D1 (Cyclin D1): Eight out of eleven
dogs with greater than 20% reduction in measureable tumor mass (malignant lymph nodes [6]): Five out of 10
dogs showing reductions in the phosphorylation status of IKK (pIKK:IKK) [7]: 6/10 and Six out of ten
dogs with a statistically significant reduction in the number of Ki67+ cells (Ki67): Four
effect on tumor burden (malignant node): decreases tumor burden
effect on cell survival ([8]; NBD peptide fused to AntP): rapid apoptosis
effect on phosphorylation of IKK and IκBα ([8]; NBD peptide fused to the cell penetrating Antennapedia peptide (AntP)): inhibits phosphorylation
inhibition of NF-κB target genes in the one dog that received 2 mg/kg (dog 11) ([9]; 2 mg/kg i.v., 24 hours after peptide, compared with the other dogs): most significant inhibition
dogs in which the expression of 3 or more target genes was reduced ([9]; 24 hours after NBD peptide, six genes evaluated): 6 out of 11

— publication PMC4010398, “A Phase I Clinical Trial of Systemically Delivered NEMO Binding Domain Peptide in Dogs with Spontaneous Activated B-Cell like Diffuse Large B-Cell Lymphoma” (PLoS ONE, 2014)
